Common to all, as to experiment: inhibition of tumour cell growth, NCI panel, 48 h
Experiment [1] relates to RXF 393 renal.
The test system of experiment [2] is SF-268 CNS.
Experiment [3] deals with 786-0 renal.
Experiment [4] concerns MDA-MB-231 breast.
Experiment [5] deals with HOP-92 NSCLC.
Experiment [6] concerns BT-549 breast.
For experiment [7], the system named is OVCAR-3 ovarian.
Experiment [8] has as its system SK-MEL-5 melanoma.
In experiment [9] the test system is OVCAR-5 ovarian.
Experiment [10] concerns LOX IMVI melanoma.

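Interpolation was linear, between the two tested concentrations surrounding the appropriate level; five concentrations were tested over 48 hours in 96-well plates. Here, GI50 denotes the concentration required for 50% inhibition of growth. TGI: concentration producing complete growth inhibition.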

For the molecule `O=S(=O)(O)c1ccc(Cl)cc1.[Cd]`, the GI50 was 27.3 µM in experiment [1]; 24.7 µM in experiment [2]; 22.5 µM in experiment [3]; greater than 100 µM in experiment [4]; greater than 100 µM in [5]; 1.94 µM in experiment [6]. The GI50 was 18.5 µM in experiment [7], 4.58 µM in experiment [8], greater than 100 µM in experiment [9] and greater than 100 µM in experiment [10]. Moreover, the TGI in experiment [1] was 79.3 µM; in experiment [2], 72 µM; in experiment [3] it was 50.2 µM; in experiment [4], greater than 100 µM; in experiment [5] it was greater than 100 µM; in [6] it was 3.9 µM. Besides, the TGI was 44.4 µM in experiment [7], 16.9 µM in [8], greater than 100 µM in experiment [9] and greater than 100 µM in experiment [10].

As to `COc1ccc(-c2cc(-c3ccc(O)cc3)nc3nc(=S)[nH]c(N)c23)cc1`, the GI50 in [1] was 28 µM; in experiment [2], 23.4 µM; in [3] it was 22.8 µM; in experiment [4] it was 16.1 µM; in experiment [5] it was 5.15 µM; in experiment [6], 12.4 µM. For the same molecule, the GI50 is 16.4 µM in experiment [7], 16.1 µM in experiment [8], 32 µM in [9] and 12 µM in [10]. Further, the TGI is 92.7 µM in experiment [1]; 79.2 µM in [2]; 56.6 µM in [3]; 57.8 µM in experiment [4]; 36.4 µM in experiment [5]; 32.7 µM in experiment [6]. The TGI is 45 µM in experiment [7], 31 µM in experiment [8], 74.3 µM in experiment [9] and 30.3 µM in [10].

Regarding `COc1ccc(-c2cn(-c3ccc(Cl)cc3)c(=S)[nH]2)cc1OC`, the GI50 was 2.98 µM in experiment [1]; 24.6 µM in [2]; 6.44 µM in experiment [3]; 1.5 µM in [4]; 0.333 µM in [5]; 7.3 µM in experiment [6]. In addition, the GI50 in [7] is 47.2 µM; in experiment [8] it was 2.92 µM; in experiment [9] it was 4.58 µM; in experiment [10], 1.52 µM. Also, the TGI is greater than 100 µM in [1]; greater than 100 µM in [2]; 91.7 µM in experiment [3]; 87 µM in [4]; 7.63 µM in experiment [5]; greater than 100 µM in experiment [6]. Besides, the TGI is greater than 100 µM in experiment [7], greater than 100 µM in experiment [8], greater than 100 µM in experiment [9] and 3.11 µM in [10].

As for `Fc1ccc(-c2ncn(C3CCNCC3)c2-c2ccnc(Oc3ccccc3)n2)cc1`, the GI50 was 11.7 µM in experiment [1]; greater than 25 µM in experiment [2]; greater than 22.5 µM in experiment [3]; 13.4 µM in experiment [4]; 5.75 µM in experiment [5]; 23 µM in experiment [6]. Besides, the GI50 is greater than 25 µM in [7], 4.87 µM in experiment [8], 22.3 µM in experiment [9] and greater than 15.8 µM in experiment [10]. In addition, the TGI in [1], in experiment [2], in experiment [3], in [4], in experiment [5] and in experiment [6] was greater than 25 µM in each case. The TGI in [7] is greater than 25 µM; in [8], 14.1 µM; in experiment [9], greater than 25 µM; in [10], greater than 25 µM.

As to `Cn1cc(C2=C(c3c4n(c5ccccc35)CC(CN)C4)C(=O)NC2=O)c2ccccc21` (stereo not given), the GI50 in experiment [1] is 2.87 µM; in [2] it was 3.94 µM; in experiment [3], 3.64 µM; in experiment [4], 3.78 µM; in experiment [5], 4.32 µM; in experiment [6], 4.46 µM. Also, the GI50 in experiment [7] was 2.82 µM; in experiment [8], 3.53 µM; in experiment [9] it was 7.16 µM; in experiment [10] it was 2.98 µM. Moreover, the TGI in experiment [1] was 6.19 µM; in experiment [2] it was 9.57 µM; in experiment [3], 8.53 µM; in [4] it was 9.76 µM; in experiment [5], 11.6 µM; in [6] it was 10.5 µM. For the same molecule, the TGI in [7] worked out at 9.35 µM; in experiment [8] it was 6.89 µM; in experiment [9], 22.1 µM; in experiment [10], 6.92 µM.

Consider `O=C(CSc1nc2ccc([N+](=O)[O-])cc2[nH]1)Nc1cccc(Cl)c1`, for which the GI50 was 2.39 µM in [1]; 3.04 µM in [2]; 3.02 µM in [3]; 2.12 µM in experiment [4]; 0.421 µM in experiment [5]; 2.72 µM in experiment [6]. Further, the GI50 in [7] is 2.38 µM; in experiment [8], 1.2 µM; in experiment [9], 2.7 µM; in experiment [10] it was 3.05 µM. The TGI in experiment [1] worked out at 8.49 µM; in experiment [2], 21.8 µM; in experiment [3] it was 14.1 µM; in experiment [4] it was 6.55 µM; in [5], 3.3 µM; in experiment [6] it was 10.8 µM. Besides, the TGI in experiment [7] amounted to 14 µM; in experiment [8], 2.6 µM; in experiment [9], 13.4 µM; in experiment [10], 13 µM.

As to `COc1ccc2c(CC(=O)O)cc(=O)oc2c1`, the TGI in experiment [1], in [2], in experiment [3], in experiment [4], in experiment [5] and in experiment [6] was greater than 100 µM in each case. Further, the TGI in experiment [7], in [8], in experiment [9] and in experiment [10] was greater than 100 µM throughout.

Values taken from PubChem BioAssay (NCI).
